Experimental data reported in ChEMBL document CHEMBL5505995, “Discovery of novel urea derivatives as ferroptosis and autophagy inducer for human colon cancer treatment” (Eur J Med Chem, 2024).
One block for each compound: values may come before it. Calls of active or inactive are those of the source. The rule behind the calls is not given here.

What was measured:
Assay type in all cases: functional, cell-based
HT-29 [1] = experiment: Antiproliferative activity against human HT-29 cells assessed as inhibition of cell growth incubated for 48 hrs by MTT assay; settings: HT-29, 48 h
HeLa = experiment: Antiproliferative activity against human HeLa cells assessed as inhibition of cell growth incubated for 48 hrs by MTT assay
K562 = experiment: Antiproliferative activity against human K562 cells assessed as inhibition of cell growth incubated for 48 hrs by MTT assay; settings: K562, 48 h
MCF7 = experiment: Antiproliferative activity against human MCF7 cells assessed as inhibition of cell growth incubated for 48 hrs by MTT assay; settings: MCF7, 48 h
HepG2 = experiment: Antiproliferative activity against human HepG2 cells assessed as inhibition of cell growth incubated for 48 hrs by MTT assay; settings: HepG2, 48 h
HT-29 [2] = experiment: Antiproliferative activity against human HT-29 cells assessed as inhibition of cell growth at 1 to 10 uM incubated for 48 hrs by MTT assay; settings: dose 1-10 µM

IC50 (HT-29 [1]): 28.4 µM | IC50 (HeLa): 25.4 µM | IC50 (K562): 28.3 µM | IC50 (MCF7): 36.4 µM | IC50 (HepG2): 15.7 µM
Compound: COc1ccc2c(c1)NCCN2C(=O)NC(C)(C)C
Activity (HT-29 [2]): Active

Compound: Cc1ccc(NC(=O)N2CCNc3ccccc32)cc1
Activity (HT-29 [2]): Active

Compound: COc1cccc(NC(=O)N2CCNc3cc(OC)ccc32)c1
Activity (HT-29 [2]): Active

Compound: COc1ccc2c(c1)NCCN2C(=O)NC1CCCCC1
Activity (HT-29 [2]): Active

Compound: COc1ccc(NC(=O)N2CCNc3ccccc32)cc1
Activity (HT-29 [2]): Active

Compound: O=C(Nc1ccc(OC(F)(F)F)cc1)N1CCNc2ccccc21
Activity (HT-29 [2]): Active

IC50 (HT-29 [1]): 19.1 µM | IC50 (HeLa): 11.7 µM | IC50 (K562): 49.1 µM | IC50 (MCF7): > 50 µM | IC50 (HepG2): 43.5 µM
Compound: COc1ccc2c(c1)NCCN2C(=O)Nc1ccccc1OC
Activity (HT-29 [2]): Active

IC50 (HT-29 [1]): 26.6 µM | IC50 (HeLa): 22.7 µM | IC50 (K562): 19.4 µM | IC50 (MCF7): > 50 µM | IC50 (HepG2): 17.6 µM
Compound: COc1ccc2c(c1)NCCN2C(=O)Nc1ccccc1C
Activity (HT-29 [2]): Active

Compound: COc1ccc2c(c1)NCCN2C(=O)Nc1ccc(N)cc1
Activity (HT-29 [2]): Active

Compound: CCOc1ccccc1-n1c(C(C)N2CCN(C(=O)COc3ccc(Cl)cc3)CC2)nc2ccccc2c1=O (stereo not drawn) [ERASTIN]
IC50 (HT-29 [1]): 20.9 µM

Compound: Cc1ccc(NC(=O)N2CCNc3ncccc32)cc1
Activity (HT-29 [2]): inactive

Compound: COc1ccc2c(c1)NCCN2C(=O)Nc1ccc(OC(F)(F)F)cc1
Activity (HT-29 [2]): Active

Compound: COC(=O)c1ccc2c(c1)NCCN2C(=O)Nc1ccc(C)cc1
Activity (HT-29 [2]): inactive

IC50 (HT-29 [1]): 28.6 µM | IC50 (HeLa): 16.6 µM | IC50 (K562): 34.4 µM | IC50 (MCF7): 48 µM | IC50 (HepG2): 40.4 µM
Compound: COc1ccc2c(c1)NCCN2C(=O)Nc1ccccc1C(F)(F)F
Activity (HT-29 [2]): Active

Compound: COc1ccc2c(c1)NCCN2C(=O)Nc1ccc(Cl)cc1
Activity (HT-29 [2]): Active

IC50 (HT-29 [1]): 14.9 µM | IC50 (HeLa): 6.52 µM | IC50 (K562): 4.57 µM | IC50 (MCF7): 40.3 µM | IC50 (HepG2): 20.5 µM
Compound: COc1ccc(OC)c(NC(=O)N2CCNc3cc(OC)ccc32)c1
Activity (HT-29 [2]): Active

Compound: CCNC(=O)N1CCNc2cc(OC)ccc21
Activity (HT-29 [2]): Active

Compound: O=C(Nc1cccc2ccccc12)N1CCNc2ccccc21
Activity (HT-29 [2]): Active

IC50 (HT-29 [1]): 3.25 µM
Compound: COC(=O)c1ccc([C@H]2c3[nH]c4ccccc4c3C[C@H](C(=O)OC)N2C(=O)CCl)cc1

Compound: COc1ccc(NC(=O)N2CCNc3cc(OC)ccc32)cc1
Activity (HT-29 [2]): Active

Compound: COc1ccc2c(c1)NCCN2C(=O)Nc1ccc(C)cc1
Activity (HT-29 [2]): Active

Compound: COc1ccc2c(c1)NCCN2C(=O)NCCCCl
Activity (HT-29 [2]): Active

Compound: COc1ccc2c(c1)NCCN2C(=O)Nc1cccc2ccccc12
Activity (HT-29 [2]): inactive

Compound: COc1ccc2c(c1)NCCN2C(=O)Nc1ccc(Cl)c(C(F)(F)F)c1
Activity (HT-29 [2]): Active

Compound: COC(=O)c1ccc2c(c1)NCCN2C(=O)Nc1ccc(OC)cc1
Activity (HT-29 [2]): inactive

Compound: O=C(NCCCl)N1CCNc2ncccc21
Activity (HT-29 [2]): inactive

Compound: COc1ccccc1NC(=O)N1CCNc2ncccc21
Activity (HT-29 [2]): inactive

Compound: COc1ccc2c(c1)NCCN2C(=O)Nc1c(C)cccc1C
Activity (HT-29 [2]): Active

IC50 (HT-29 [1]): 3.56 µM | IC50 (HeLa): 10.3 µM | IC50 (MCF7): 9.81 µM | IC50 (HepG2): 11.2 µM
Compound: CNC(=O)c1cc(Oc2ccc(NC(=O)Nc3ccc(Cl)c(C(F)(F)F)c3)cc2)ccn1 [SORAFENIB]

Compound: CC(C)NC(=O)N1CCNc2ccccc21
Activity (HT-29 [2]): Active
